In this assay the target is ROCK2 (human) (UniProt O75116). As to the kind of experiment: Inhibition of ROCK2 Kinase Activity. The note with it: concentration not given here.

The structures appear in SMILES notation.

The term inhibition denotes how much of the control response was suppressed.

Chain of ROCK2 (human) (O75116 whole entry, looked up): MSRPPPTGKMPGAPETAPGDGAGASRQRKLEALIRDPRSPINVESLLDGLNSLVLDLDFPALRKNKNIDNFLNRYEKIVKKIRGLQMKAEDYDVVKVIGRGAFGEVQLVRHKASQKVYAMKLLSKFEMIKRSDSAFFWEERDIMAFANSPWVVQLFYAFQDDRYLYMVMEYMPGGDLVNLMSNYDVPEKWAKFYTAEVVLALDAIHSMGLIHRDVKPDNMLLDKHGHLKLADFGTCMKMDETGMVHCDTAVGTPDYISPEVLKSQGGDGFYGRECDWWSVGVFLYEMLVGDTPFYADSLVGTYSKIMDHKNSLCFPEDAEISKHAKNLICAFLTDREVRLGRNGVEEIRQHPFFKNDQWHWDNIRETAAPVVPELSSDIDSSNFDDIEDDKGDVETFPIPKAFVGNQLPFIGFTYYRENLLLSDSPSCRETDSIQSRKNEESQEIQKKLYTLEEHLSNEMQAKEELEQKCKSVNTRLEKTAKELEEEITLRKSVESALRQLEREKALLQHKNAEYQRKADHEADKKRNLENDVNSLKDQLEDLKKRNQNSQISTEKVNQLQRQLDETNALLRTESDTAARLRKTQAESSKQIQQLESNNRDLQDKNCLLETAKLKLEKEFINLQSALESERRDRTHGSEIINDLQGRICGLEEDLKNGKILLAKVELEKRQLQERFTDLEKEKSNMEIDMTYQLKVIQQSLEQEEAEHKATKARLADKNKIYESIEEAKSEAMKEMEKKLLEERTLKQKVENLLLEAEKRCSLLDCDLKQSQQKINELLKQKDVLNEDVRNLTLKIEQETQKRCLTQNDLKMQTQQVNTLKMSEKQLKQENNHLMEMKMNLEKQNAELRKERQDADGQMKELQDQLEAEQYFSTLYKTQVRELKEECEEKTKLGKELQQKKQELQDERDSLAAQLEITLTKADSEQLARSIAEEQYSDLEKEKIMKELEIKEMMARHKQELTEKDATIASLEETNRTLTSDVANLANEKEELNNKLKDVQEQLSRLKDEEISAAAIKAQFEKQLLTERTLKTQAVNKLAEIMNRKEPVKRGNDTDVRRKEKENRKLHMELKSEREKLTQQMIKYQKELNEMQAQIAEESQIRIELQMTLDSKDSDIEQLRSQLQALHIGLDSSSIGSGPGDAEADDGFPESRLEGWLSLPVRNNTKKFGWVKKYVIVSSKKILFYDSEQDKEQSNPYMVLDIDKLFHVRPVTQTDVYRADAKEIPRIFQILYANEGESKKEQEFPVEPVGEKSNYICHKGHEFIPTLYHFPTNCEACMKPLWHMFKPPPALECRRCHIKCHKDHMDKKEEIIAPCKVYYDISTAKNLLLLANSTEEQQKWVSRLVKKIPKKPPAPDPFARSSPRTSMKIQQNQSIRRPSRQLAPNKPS

`Cn1cnc2c(Nc3ccccc3)ncnc21` returned an inhibition of 0%. Regarding `Nc1ncnc2c1ncn2Cc1ccc(F)cc1`, the inhibition stood at 0%. Consider `Cn1c(Br)nc2c(Sc3ccccc3)ncnc21`, for which the inhibition was determined as 0%. For `CSc1ccc(-c2nc3c(Sc4ccc(F)cc4)ncnc3n2C)cc1` the value was 0%. Regarding `Cn1c(C#CCCO)nc2c(Sc3ccccc3)ncnc21`, the inhibition was 0%. For `Fc1ccc(Cn2cnc3c(Sc4ccc(F)cc4)ncnc32)cc1` the value was 0%.

`Cn1c(-c2ccccc2)nc2c(-c3ccc(F)cc3)ncnc21` gave an inhibition of 0%.

`Cn1c(-c2ccc(S(C)(=O)=O)cc2)nc2c(Sc3ccc(F)cc3)ncnc21` showed an inhibition of 0%.

As to `Cn1cnc2c(/C=C/c3ccccc3)ncnc21`, the inhibition came out at 0%. Consider `Cn1c(-c2ccc([S+](C)[O-])cc2)nc2c(Sc3ccc(F)cc3)ncnc21` (centres undefined), for which the inhibition was 0%. For `c1ccc(-n2cnc3ncncc32)cc1` the value was 0%; for `C(=C\c1ncnc2[nH]cnc12)/c1ccccc1`, 22%.

For `Fc1ccc(Cn2cnc3c(Cl)ncnc32)cc1`, the inhibition was 0%.

`CSc1ccc(-c2nc3c(Sc4ccccc4)ncnc3n2C)cc1` returned an inhibition of 0%.

Source of the values: the Kinase Knowledgebase extract (Sharma et al. 2016).
